# Experimental data from ChEMBL document CHEMBL1125992, “Evaluation of bouvardin, deoxybouvardin, and RA-I - RA-VII partial structures: reassignment of the pharmacophore” (Bioorg Med Chem Lett, 1991).
# Starred links: 1 amine or outer side, 2 acyl side, 3 side chain; linkers in the order of their positions; H or OH if unused. Non-standard residues stand in square brackets, D forms with d. Residues, ends and D or L forms follow the SMILES beside them. ξ: configuration not given here. X1 = CN(CCc1ccc(Oc2cccc(CCC(=O)[*:2])c2)cc1)[*:1]; NMeY = CN[C@@H](Cc1ccc(O)cc1)C(=O)O; ξA = CC(N)C(=O)O
# Test system: L1210
# Test: In vitro cytotoxicity against L1210 (murine leukemia) cells.
# Assay type: functional, cell-based
# Details: Mus musculus
row,SMILES,IC50
1,COC(=O)[C@@H]1Cc2ccc(OC)c(c2)Oc2ccc(cc2)C[C@H](N(C)C(=O)OC(C)(C)C)C(=O)N1,0.06 µg/mL
2,COc1ccc(C[C@H]2C(=O)N[C@@H](C)C(=O)N(C)[C@H]3Cc4ccc(cc4)Oc4cc(ccc4O)C[C@@H](C(=O)N[C@H](C)C(=O)N[C@@H](C)C(=O)N2C)N(C)C3=O)cc1,0.002 µg/mL
3,COc1ccc2cc1Oc1ccc(cc1)CCC(=O)N(C)CC2,> 100 µg/mL
4,COC(=O)[C@@H]1Cc2ccc(OC)c(c2)Oc2ccc(cc2)C[C@H](N(C)C(=O)OC(C)(C)C)C(=O)N1C,0.03 µg/mL
5,CN1CCc2cccc(c2)Oc2ccc(cc2)CCC1=O,> 100 µg/mL
6,O=C1CCc2ccc(cc2)Oc2cccc(c2)CCN1,> 100 µg/mL
7,COc1ccc(C[C@H]2C(=O)N[C@@H](C)C(=O)N(C)[C@H]3C(=O)N(C)[C@H]3C(=O)NC(C)C(=O)N[C@@H](C)C(=O)N2C)cc1 (stereo partly specified),50 µg/mL
8,COc1ccc(C[C@H]2C(=O)N[C@@H](C)C(=O)N[C@H](C)C(=O)N[C@@H](C)C(=O)N2C)cc1,20 µg/mL
9,CN[C@H]1Cc2ccc(O)c(c2)Oc2ccc(cc2)C[C@@H](C(=O)O)N(C)C(=O)[C@H](C)NC(=O)[C@H](Cc2ccc(OC)cc2)N(C)C(=O)[C@H](C)NC(=O)[C@@H](C)NC1=O,10 µg/mL
10,COc1ccc(C[C@H]2C(=O)N[C@@H](C)C(=O)N(C)[C@H]3Cc4ccc(cc4)Oc4cc(ccc4OC)C[C@@H](C(=O)N[C@H](C)C(=O)N[C@@H](C)C(=O)N2C)N(C)C3=O)cc1,0.002 µg/mL
11,COC(=O)[C@@H]1Cc2ccc(O)c(c2)Oc2ccc(cc2)CCC(=O)N1,> 100 µg/mL
12,COC(=O)[C@@H]1Cc2ccc(OC)c(c2)Oc2ccc(cc2)C[C@H](N(C)C(=O)OCc2ccccc2)C(=O)N1C,0.04 µg/mL
13,COc1ccc2cc1Oc1ccc(cc1)CCC(=O)NCC2,> 100 µg/mL
14,COC(=O)[C@@H]1Cc2ccc(OC)c(c2)Oc2ccc(cc2)C[C@H](N(C)C(=O)OCc2ccccc2)C(=O)N1,0.05 µg/mL
15,COc1ccc(C[C@H]2C(=O)N[C@@H](C)C(=O)N(C)CCc3ccc(cc3)Oc3cccc(c3)CCC(=O)NC(C)C(=O)N[C@@H](C)C(=O)N2C)cc1 (stereo partly specified) (cyclo(A[NMeY](Me)A[X1][ξA])),20 µg/mL
16,COc1ccc(C[C@H]2C(=O)N[C@@H](C)C(=O)N(C)[C@H]3Cc4ccc(cc4)Oc4cc(ccc4OC)C[C@H](NC3=O)C(=O)N[C@H](C)C(=O)N[C@@H](C)C(=O)N2C)cc1,0.001 µg/mL
17,COC(=O)[C@@H]1Cc2ccc(cc2)Oc2cc(ccc2OC(=O)c2ccccc2)C[C@H](N(C)C(=O)OCc2ccccc2)C(=O)NC(C)C(=O)N[C@@H](C)C(=O)N(C)[C@@H](Cc2ccc(OC)cc2)C(=O)N[C@@H](C)C(=O)N1C (stereo partly specified),10 µg/mL
18,COc1ccc(C[C@H]2C(=O)N[C@@H](C)C(=O)N(C)CC(=O)N(C)CC(=O)N[C@H](C)C(=O)N[C@@H](C)C(=O)N2C)cc1,> 100 µg/mL
19,COC(=O)[C@@H]1Cc2ccc(OC)c(c2)Oc2ccc(cc2)CCC(=O)N1,> 100 µg/mL
20,COc1ccc(C[C@H]2C(=O)N[C@@H](C)C(=O)N(C)Cc3ccccc3CC(=O)N[C@H](C)C(=O)N[C@@H](C)C(=O)N2C)cc1,25 µg/mL
21,COc1ccc(C[C@H]2C(=O)N[C@@H](C)C(=O)N(C)[C@@H](Cc3ccc(O)cc3)C(=O)N(C)[C@@H](Cc3ccc(O)cc3)C(=O)N[C@H](C)C(=O)N[C@@H](C)C(=O)N2C)cc1,> 100 µg/mL
